Measurements reported in article PMC7311426, “An amphipathic peptide with antibiotic activity against multidrug-resistant Gram-negative bacteria” (Nature Communications, 2020).
Residues, ends and D or L forms follow the SMILES beside them.

Assays:
Test in all cases: microbe, parasite or virus in culture
P. aeruginosa = test system: P. aeruginosa
Summary of the method: (§1)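 MICs were scored by eye after 18-20 h static incubation at 37 °C, with bacteria at 5 × 10^5 CFU mL^−1 in MHB. Peptides were serially diluted 2-fold over 12 points, top 128 or 64 μg mL^−1. CAMHB (CLSI) and 1% agarose-MHB variants were also run, at least six replicates.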

S. aureus = conditions: BMD; range over strains and media
Summary of the method: as §1

S. enterica Typhi = conditions: Typhi
Summary of the method: as §1

[1] = test system: A. baumannii clinical isolates; conditions: clinical isolates
Summary of the method: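 MIC90 from CLSI broth microdilution (M07-A9) in two clinical-isolate panels. US panel (331 isolates, 2010-2012): AA139 diluted in 0.01% acetic acid/0.1% BSA. Worldwide panel (445 isolates, 2011-2013, four regions): CAMHB, with 0.002% Tween 80 added for AA139 and polymyxin B.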

CC(C)[C@@H]1NC(=O)[C@H](Cc2ccc(O)cc2)NC(=O)[C@H](Cc2c[nH]c3ccccc23)NC(=O)[C@@H](NC(=O)[C@H](Cc2ccccc2)NC(=O)CN)CSSC[C@@H](C(=O)N[C@@H](CC(N)=O)C(=O)O)NC(=O)[C@H](CCCNC(=N)N)NC(=O)[C@H](CCCNC(=N)N)NC(=O)[C@H](Cc2ccc(O)cc2)NC(=O)[C@@H]2CSSC[C@H](NC1=O)C(=O)N[C@@H](C)C(=O)N[C@@H](CCCNC(=N)N)C(=O)N[C@@H](CCCNC(=N)N)C(=O)N[C@@H](CC(N)=O)C(=O)NCC(=O)N[C@@H](C)C(=O)N[C@@H](CCCNC(=N)N)C(=O)N[C@@H](C(C)C)C(=O)N2 [AA139] (HELM PEPTIDE1{G.F.C.W.Y.V.C.A.R.R.N.G.A.R.V.C.Y.R.R.C.N}$PEPTIDE1,PEPTIDE1,3:R3-20:R3|PEPTIDE1,PEPTIDE1,7:R3-16:R3$$$V2.0)
0.5 µg/mL: BMD MIC (S. enterica Typhi)
32 to 64 µg/mL: MIC against Staphylococcus aureus (S. aureus)
2.0 µg/mL: MIC90 (A. baumannii) [1]
2 µg/mL: MIC, broth microdilution (P. aeruginosa; P. aeruginosa ATCC 27853 spontaneous mutant, AA139 selection 8X, plate 1, colony 2, drug-free passage 5) | BMD MIC (P. aeruginosa; P. aeruginosa FADDI-070, MDR, PmxR, MHB/CAMHB, mode of 6 replicates) | MIC, broth microdilution (P. aeruginosa; P. aeruginosa UNT 138-1 spontaneous mutant, AA139 selection 4X, plate 1, colony 5, drug-free passage 1) | MIC, broth microdilution (P. aeruginosa; P. aeruginosa UNT 138-1 spontaneous mutant, AA139 selection 4X, plate 1, colony 6, drug-free passage 1) | MIC, broth microdilution (P. aeruginosa; P. aeruginosa UNT 138-1 spontaneous mutant, AA139 selection 4X, plate 1, colony 7, drug-free passage 1) | MIC, broth microdilution (P. aeruginosa; P. aeruginosa UNT 138-1 spontaneous mutant, AA139 selection 4X, plate 2, colony 2, drug-free passage 1) | MIC, broth microdilution (P. aeruginosa; P. aeruginosa UNT 138-1 spontaneous mutant, AA139 selection 4X, plate 2, colony 4, drug-free passage 1) | MIC, broth microdilution (P. aeruginosa; P. aeruginosa UNT 138-1 spontaneous mutant, AA139 selection 4X, plate 2, colony 5, drug-free passage 1) | MIC, broth microdilution (P. aeruginosa; P. aeruginosa UNT 138-1 spontaneous mutant, AA139 selection 4X, plate 2, colony 6, drug-free passage 1) | MIC, broth microdilution (P. aeruginosa; P. aeruginosa UNT 138-1 spontaneous mutant, AA139 selection 4X, plate 2, colony 7, drug-free passage 1) | MIC, broth microdilution (P. aeruginosa; P. aeruginosa UNT 138-1 spontaneous mutant, AA139 selection 8X, plate 1, colony 1, drug-free passage 1) | MIC, broth microdilution (P. aeruginosa; P. aeruginosa UNT 138-1 spontaneous mutant, AA139 selection 8X, plate 1, colony 5, drug-free passage 5)
1 µg/mL: MIC, broth microdilution (P. aeruginosa; P. aeruginosa ATCC 27853 spontaneous mutant, AA139 selection 8X, plate 1, colony 2, drug-free passage 1) | MIC, broth microdilution (P. aeruginosa; P. aeruginosa UNT 138-1 spontaneous mutant, AA139 selection 4X, plate 1, colony 5, drug-free passage 5) | MIC, broth microdilution (P. aeruginosa; P. aeruginosa UNT 138-1 spontaneous mutant, AA139 selection 4X, plate 1, colony 6, drug-free passage 5) | MIC, broth microdilution (P. aeruginosa; P. aeruginosa UNT 138-1 spontaneous mutant, AA139 selection 4X, plate 1, colony 7, drug-free passage 5) | MIC, broth microdilution (P. aeruginosa; P. aeruginosa UNT 138-1 spontaneous mutant, AA139 selection 4X, plate 2, colony 2, drug-free passage 5) | MIC, broth microdilution (P. aeruginosa; P. aeruginosa UNT 138-1 spontaneous mutant, AA139 selection 4X, plate 2, colony 4, drug-free passage 5) | MIC, broth microdilution (P. aeruginosa; P. aeruginosa UNT 138-1 spontaneous mutant, AA139 selection 4X, plate 2, colony 5, drug-free passage 5) | MIC, broth microdilution (P. aeruginosa; P. aeruginosa UNT 138-1 spontaneous mutant, AA139 selection 4X, plate 2, colony 6, drug-free passage 5) | MIC, broth microdilution (P. aeruginosa; P. aeruginosa UNT 138-1 spontaneous mutant, AA139 selection 4X, plate 2, colony 7, drug-free passage 5) | MIC, broth microdilution (P. aeruginosa; P. aeruginosa UNT 138-1 spontaneous mutant, AA139 selection 8X, plate 1, colony 1, drug-free passage 5) | MIC, broth microdilution (P. aeruginosa; P. aeruginosa UNT 138-1 spontaneous mutant, AA139 selection 8X, plate 1, colony 5, drug-free passage 1)
2, 2 µg/mL: MIC, broth microdilution (P. aeruginosa; P. aeruginosa UNT 138-1 spontaneous mutant, AA139 selection 4X, plate 1, colony 1, drug-free passage 1) | MIC, broth microdilution (P. aeruginosa; P. aeruginosa UNT 138-1 spontaneous mutant, AA139 selection 4X, plate 1, colony 1, drug-free passage 5) | MIC, broth microdilution (P. aeruginosa; P. aeruginosa UNT 138-1 spontaneous mutant, AA139 selection 4X, plate 2, colony 1, drug-free passage 1) | MIC, broth microdilution (P. aeruginosa; P. aeruginosa UNT 138-1 spontaneous mutant, AA139 selection 4X, plate 2, colony 1, drug-free passage 5) | MIC, broth microdilution (P. aeruginosa; P. aeruginosa UNT 138-1 spontaneous mutant, AA139 selection 4X, plate 2, colony 3, drug-free passage 1) | MIC, broth microdilution (P. aeruginosa; P. aeruginosa UNT 138-1 spontaneous mutant, AA139 selection 4X, plate 2, colony 3, drug-free passage 5) | MIC, broth microdilution (P. aeruginosa; P. aeruginosa UNT 138-1 spontaneous mutant, AA139 selection 8X, plate 1, colony 4, drug-free passage 1) | MIC, broth microdilution (P. aeruginosa; P. aeruginosa UNT 138-1 spontaneous mutant, AA139 selection 8X, plate 1, colony 4, drug-free passage 5)
1, 1 µg/mL: MIC, broth microdilution (P. aeruginosa; P. aeruginosa ATCC 27853 spontaneous mutant, AA139 selection 8X, plate 1, colony 1, drug-free passage 1) | MIC, broth microdilution (P. aeruginosa; P. aeruginosa ATCC 27853 spontaneous mutant, AA139 selection 8X, plate 1, colony 1, drug-free passage 5) | MIC, broth microdilution (P. aeruginosa; P. aeruginosa ATCC 27853 spontaneous mutant, AA139 selection 8X, plate 1, colony 3, drug-free passage 1) | MIC, broth microdilution (P. aeruginosa; P. aeruginosa ATCC 27853 spontaneous mutant, AA139 selection 8X, plate 1, colony 3, drug-free passage 5) | MIC, broth microdilution (P. aeruginosa; P. aeruginosa ATCC 27853 spontaneous mutant, AA139 selection 8X, plate 1, colony 4, drug-free passage 1) | MIC, broth microdilution (P. aeruginosa; P. aeruginosa ATCC 27853 spontaneous mutant, AA139 selection 8X, plate 1, colony 4, drug-free passage 5) | MIC, broth microdilution (P. aeruginosa; P. aeruginosa ATCC 27853 spontaneous mutant, AA139 selection 8X, plate 1, colony 5, drug-free passage 1) | MIC, broth microdilution (P. aeruginosa; P. aeruginosa ATCC 27853 spontaneous mutant, AA139 selection 8X, plate 1, colony 5, drug-free passage 5) | MIC, broth microdilution (P. aeruginosa; P. aeruginosa UNT 138-1 spontaneous mutant, AA139 selection 4X, plate 1, colony 2, drug-free passage 1) | MIC, broth microdilution (P. aeruginosa; P. aeruginosa UNT 138-1 spontaneous mutant, AA139 selection 4X, plate 1, colony 2, drug-free passage 5) | MIC, broth microdilution (P. aeruginosa; P. aeruginosa UNT 138-1 spontaneous mutant, AA139 selection 4X, plate 1, colony 3, drug-free passage 1) | MIC, broth microdilution (P. aeruginosa; P. aeruginosa UNT 138-1 spontaneous mutant, AA139 selection 4X, plate 1, colony 3, drug-free passage 5) | MIC, broth microdilution (P. aeruginosa; P. aeruginosa UNT 138-1 spontaneous mutant, AA139 selection 4X, plate 1, colony 4, drug-free passage 1) | MIC, broth microdilution (P. aeruginosa; P. aeruginosa UNT 138-1 spontaneous mutant, AA139 selection 4X, plate 1, colony 4, drug-free passage 5) | MIC, broth microdilution (P. aeruginosa; P. aeruginosa UNT 138-1 spontaneous mutant, AA139 selection 8X, plate 1, colony 2, drug-free passage 1) | MIC, broth microdilution (P. aeruginosa; P. aeruginosa UNT 138-1 spontaneous mutant, AA139 selection 8X, plate 1, colony 2, drug-free passage 5) | MIC, broth microdilution (P. aeruginosa; P. aeruginosa UNT 138-1 spontaneous mutant, AA139 selection 8X, plate 1, colony 3, drug-free passage 1) | MIC, broth microdilution (P. aeruginosa; P. aeruginosa UNT 138-1 spontaneous mutant, AA139 selection 8X, plate 1, colony 3, drug-free passage 5) | MIC, broth microdilution (P. aeruginosa; P. aeruginosa UNT 138-1 spontaneous mutant, AA139 selection 8X, plate 2, colony 1, drug-free passage 1) | MIC, broth microdilution (P. aeruginosa; P. aeruginosa UNT 138-1 spontaneous mutant, AA139 selection 8X, plate 2, colony 1, drug-free passage 5)
≤ 2 µg/mL: MIC against colistin-resistant isolates (did not surpass) [1]
